The values below come from patent US20090192185A1, “MEDICAL PRODUCT” (Boehringer Ingelheim International GmbH, priority 2003, published 2009).

Each structure is given as a SMILES string.

The nature of series [1]: Stability tests of FPD at 40° C. and 75% Rh (tests S1-S5, HBS1-HBS3), out of […]. It is filed as physicochemical. The note with it: conclusion of the tests.
For series [2] the following is noted: bronchodilator; cited from earlier work.

With `C[N+]1(C)[C@@H]2C[C@@H](OC(=O)C(O)(c3cccs3)c3cccs3)C[C@H]1[C@@H]1O[C@@H]12` [tiotropium], in series [1], the Sensitivity to moisture entry is recorded as “extremely sensitive to moisture”.
In the case of `C[N+]1(C)[C@@H]2C[C@@H](OC(=O)C(O)(c3cccs3)c3cccs3)C[C@H]1[C@@H]1O[C@@H]12` [tiotropium bromide], the Duration of action entry in series [2] is listed as “up to 24 hours”.
